According to patent US7067665B2, “Oxybenzamide derivatives useful for inhibiting factor Xa or Vlla” (Sanofi-Aventis Deutschland GmbH, priority 2000, dated 2006):
Like-named read-outs stand apart in the source and are kept apart here.

Target: T1, human factor Xa (Homo sapiens, UniProt P00742)
T1 construct: 25 μl human factor Xa (Enzyme Research Laboratories, Inc; South Bend, Ind.); purchased Enzyme Research Laboratories, Inc; South Bend, Ind
Test: Factor Xa chromogenic assay (substrate S-2765);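 further: purified enzyme, compound preincubated with the enzyme for 10 min before substrate addition starts the reaction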
Assay type: biochemical
Details: read-out: Ki(FXa)

[1] = inhibition constant for inhibition of factor Xa, IC50 corrected for substrate competition, 25° C., enzyme 0.5 nM, substrate 140 μM

T1 sequence (P00742 235-488 limits assumed): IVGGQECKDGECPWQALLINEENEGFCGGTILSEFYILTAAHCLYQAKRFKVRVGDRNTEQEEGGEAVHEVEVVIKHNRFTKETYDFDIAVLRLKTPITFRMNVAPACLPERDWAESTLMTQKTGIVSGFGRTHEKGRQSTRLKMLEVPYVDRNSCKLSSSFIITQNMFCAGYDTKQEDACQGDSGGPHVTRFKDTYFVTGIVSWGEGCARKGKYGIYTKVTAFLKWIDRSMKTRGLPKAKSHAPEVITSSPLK
T1 sequence (P00742 41-179 partner limits assumed): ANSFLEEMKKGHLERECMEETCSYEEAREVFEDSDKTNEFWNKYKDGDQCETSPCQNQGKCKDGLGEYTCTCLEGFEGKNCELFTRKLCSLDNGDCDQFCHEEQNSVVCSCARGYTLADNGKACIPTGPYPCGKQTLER

Structure (SMILES)	Ki [1] [nM]	Ki [nM]
COc1ccc(C(=O)N2CCN(Cc3ccccn3)CC2)cc1OCCc1ccc(Cl)cc1Cl [Example 2, {3-[2-(2,4-Dichlorophenyl)-ethoxy]-4-methoxy-phenyl}-(4-pyridin-2-ylmethyl-piperazin-1-yl)-methanone]	1540	
COc1ccc(C(=O)N2CCN(c3ccncc3)CC2)cc1OCCc1ccc(Cl)cc1Cl [Example 3, {3-[2-(2,4-Dichlorophenyl)-ethoxy]-4-methoxy-phenyl}-(4-pyridin-4-yl-piperazin-1-yl)-methanone]	5410	
Cc1ccc(C(=O)N2CCN(Cc3ccncc3)CC2)cc1OCCc1ccc(Cl)cc1Cl [Example 4, {3-[2-(2,4-Dichlorophenyl)-ethoxy]-4-methyl-phenyl}-(4-pyridin-4-ylmethyl-piperazin-1-yl)-methanone]		298
COc1cc(C(=O)N2CCN(Cc3ccncc3)CC2)cc(OCCc2ccc(Cl)cc2Cl)c1OC [Example 5, {3-[2-(2,4-Dichloro-phenyl)-ethoxy]-4,5-dimethoxy-phenyl}-(4-pyridin-4-ylmethyl-piperazin-1-yl)-methanone]	167	
CCOc1ccc(C(=O)N2CCN(Cc3ccncc3)CC2)cc1OCCc1ccc(Cl)cc1Cl [Example 9, {3-[2-(2,4-Dichloro-phenyl)-ethoxy]-4-ethoxy-phenyl}-(4-pyridin-4-ylmethyl-piperazin-1-yl)-methanone]	306	
COc1ccc(C(=O)N2CCN(Cc3ccc(C#N)cc3)CC2)cc1OCCc1ccc(Cl)cc1Cl [Example 11, 4-(4-{3-[2-(2,4-Dichloro-phenyl)-ethoxy]-4-methoxy-benzoyl}-piperazin-1-ylmethyl)-benzonitrile]	1380	
COc1ccc(C(=O)N2CCN(Cc3ccc(F)cc3)CC2)cc1OCCc1ccc(Cl)cc1Cl [Example 12, {3-[2-(2,4-Dichlorophenyl)-ethoxy]-4-methoxy-phenyl}-[4-(4-fluorobenzyl)-piperazin-1-yl]-methanone]		3010
COc1ccc(C(=O)N2CCN(CC(=O)N(C)C)CC2)cc1OCCc1ccc(Cl)cc1Cl [Example 13, 2-(4-{3-[2-(2,4-Dichlorophenyl)-ethoxy]-4-methoxy-benzoyl}-piperazin-1-yl)-N,N-dimethyl-acetamide]	1410	
COc1ccc(C(=O)N2CCN(CC(=O)N3CCCC3)CC2)cc1OCCc1ccc(Cl)cc1Cl [Example 14, 2-(4-{3-[2-(2,4-Dichlorophenyl)-ethoxy]-4-methoxy-benzoyl}-piperazin-1-yl)-1-pyrrolidin-1-yl-ethanone]	2180	
COc1ccc(C(=O)NCCCN2CCCCC2)cc1OCCc1ccc(Cl)cc1Cl [Example 15, 3-[2-(2,4-Dichlorophenyl)-ethoxy]-4-methoxy-N-(3-piperidin-1-yl-propyl)-benzamide]	2220	
COc1ccc(C(=O)NCCN2CCCCC2)cc1OCCc1ccc(Cl)cc1Cl [Example 16, 3-[2-(2,4-Dichloro-phenyl)-ethoxy]-4-methoxy-N-(2-piperidin-1-yl-ethyl)-benzamide]	4220	
Cc1ccc(C(=O)N2CCN(Cc3cc[n+]([O-])cc3)CC2)cc1OCCc1ccc(Cl)cc1Cl [Example 17, {3-[2-(2,4-Dichloro-phenyl)-ethoxy]-4-methyl-phenyl}-[4-(1-oxy-pyridin-4-ylmethyl)-piperazin-1-yl]-methanone]	407	
O=C(c1ccc(CO)c(OCCc2ccc(Cl)cc2Cl)c1)N1CCN(Cc2cc[n+]([O-])cc2)CC1 [Example 18, {3-[2-(2,4-Dichloro-phenyl)-ethoxy]-4-hydroxymethyl-phenyl}-[4-(1-oxy-pyridin-4-ylmethyl)-piperazin-1-yl]-methanone]	6200	
COc1cc(C(=O)N2CCN(Cc3ccncc3)CC2)cc(OCCc2ccc(Cl)cc2Cl)c1Br [Example 19, {4-Bromo-3-[2-(2,4-dichlorophenyl)-ethoxy]-5-methoxyphenyl}-(4-pyridin-4-ylmethyl-piperazin-1-yl)-methanone]		95
COc1ccc(C(=O)NCC2CC(c3ccncc3)=NO2)cc1OCCc1ccc(Cl)cc1Cl (stereo not shown) [Example 24, 3-[2-(2,4-Dichloro-phenyl)-ethoxy]-4-methoxy-N-(3-pyridin-4-yl-4,5-dihydro-isoxazol-5-ylmethyl)-benzamide]	1130	
COc1ccc(C(=O)NCC2CC(c3cc[n+]([O-])cc3)=NO2)cc1OCCc1ccc(Cl)cc1Cl (stereo not shown) [Example 28, 3-[2-(2,4-Dichloro-phenyl)-ethoxy]-N-[3-(1-hydroxy-pyridin-4-yl)-4,5-dihydro-isoxazol-5-ylmethyl]-4-methoxy-benzamide]	960	
COc1ccc(C(=O)NCC2CCC(CN)CC2)cc1OCCc1ccc(Cl)cc1Cl (stereo not shown) [Example 31, N-(4-Aminomethyl-cyclohexylmethyl)-3-[2-(2,4-dichloro-phenyl)-ethoxy]-4-methoxy-benzamide]	9340	
COc1ccc(C(=O)NCC2CCN(C3CCCC3)CC2)cc1OCCc1ccc(Cl)cc1Cl [Example 54, N-(1-Cyclopentyl-piperidin-4-ylmethyl)-3-[2-(2,4-dichloro-phenyl)-ethoxy]-4-methoxy-benzamide]	6520	
COc1ccc(C(=O)NCC2CCN(C3CCCCC3)CC2)cc1OCCc1ccc(Cl)cc1Cl [Example 56]	4330	
COc1ccc(C(=O)NCC2CCN(C3CCCCCC3)CC2)cc1OCCc1ccc(Cl)cc1Cl [Example 57]	6220	
COc1ccc(C(=O)NCC2CCN(c3cc[n+]([O-])cc3)CC2)cc1OCCc1ccc(Cl)cc1Cl [Example 66]	1480	
COc1ccc(C(=O)NCC2CCN(c3ccccn3)CC2)cc1OCCc1ccc(Cl)cc1Cl [Example 68, 3-[2-(2,4-Dichloro-phenyl)-ethoxy]-4-methoxy-N-(3,4,5,6-tetrahydro-2H-[1,2′]bipyridinyl-4-ylmethyl)-benzamide]	3040	

Structure (SMILES)	Ki [1] [nM]	Ki [nM]
O=C(NCC1CCN(c2ccncc2)CC1)c1cc(OCCc2ccc(Cl)cc2Cl)ccc1Cl [Example 81]		241
O=C(NCC1CCN(c2ccncc2)CC1)c1cc(OCCc2ccc(Cl)cc2Cl)ccc1[N+](=O)[O-] [Example 84]	4880	
O=C(NCC1CCN(c2ccncc2)CC1)c1cccc(OCCc2ccc(Cl)cc2Cl)n1 [Example 85]		304
O=C(NCC1CCN(c2ccncc2)CC1)c1cc(O)c(Br)c(OCCc2ccc(Cl)cc2Cl)c1 [Example 86]		26
O=C(NCC1CCN(c2ccncc2)CC1)c1cncc(OCCc2ccc(Cl)cc2Cl)c1 [Example 87]		70
O=C(Nc1cccc(C(=O)NCC2CCN(c3ccncc3)CC2)c1)Nc1ccc(Cl)cn1 [Example 91, 3-[3-(5-Chloro-pyridin-2-yl)-ureido]-N-(3,4,5,6-tetrahydro-2H-[1,4′]bipyridinyl-4-ylmethyl)-benzamide]		1390
COc1ccc(C(=O)NCC2CCN(c3ccncc3)CC2)cc1OCc1cc(-c2ccc(Cl)s2)on1 [Example 93, 3-[5-(5-Chloro-thiophen-2-yl)-isoxazol-3-ylmethoxy]-4-methoxy-N-(3,4,5,6-tetrahydro-2H-[1,4′]bipyridinyl-4-ylmethyl)-benzamide]		188
COc1ccc(C(=O)NCC2CCN(c3ccncc3)CC2)cc1Oc1nc2ccc(Cl)cc2s1 [Example 94]		760
COc1ccc(C(=O)NCC2CCN(c3ccncc3)CC2)cc1NS(=O)(=O)c1cc2ccc(Cl)cc2s1 [Example 97, 3-(6-Chloro-benzo[b]thiophene-2-sulfonylamino)-4-methoxy-N-(3,4,5,6-tetrahydro-2H-[1,4′]bipyridinyl-4-ylmethyl)-benzamide]		3500
O=C(NCC1CCN(c2ccncc2)CC1)c1cccc(S(=O)(=O)Nc2ccc(Cl)cn2)c1 [Example 99, 3-(5-Chloro-pyridin-2-ylsulfamoyl)-N-(3,4,5,6-tetrahydro-2H-[1,4′]bipyridinyl-4-ylmethyl)-benzamide]		3710
COc1ccc(C(=O)NCC2CCN(c3ccncc3)CC2)cc1NC(=O)Cc1ccc(Cl)cc1Cl [Example 100, 3-[2-(2,4-Dichloro-phenyl)-acetylamino]-4-methoxy-N-(3,4,5,6-tetrahydro-2H-[1,4′]bipyridinyl-4-ylmethyl)-benzamide]		298
O=C(NCC1CCN(c2ccncc2)CC1)c1cc(OCCc2ccc(Cl)cc2Cl)c[n+]([O-])c1 [Example 102, 5-[2-(2,4-Dichloro-phenyl)-ethoxy]-1-oxy-N-(3,4,5,6-tetrahydro-2H-[1,4′]bipyridinyl-4-ylmethyl)-nicotinamide]		636
COc1ccc(C(=O)NC2CCN(C3CCCCC3)CC2)cc1OCCc1ccc(Cl)cc1Cl [Example 128, N-(1-Cyclohexyl-piperidin-4-yl)-3-[2-(2,4-dichloro-phenyl)-ethoxy]-4-methoxy-benzamide]		40900
COc1ccc(C(=O)NC2CCN(C3CCOCC3)CC2)cc1OCCc1ccc(Cl)cc1Cl [Example 129]		25200
COc1ccc(C(=O)NCC2CCN(c3ccncc3)CC2)cc1OCC1(c2ccc(Cl)cc2)CC1 [Example 140]		69500
COc1ccc(C(=O)NCC2CCN(c3ccncc3)CC2)cc1OCCc1ccc(Cl)nc1 [Example 145]		591
Cc1cc(N2CCC(CNC(=O)c3ccc(Cl)c(OCCc4ccc(Cl)nc4)c3)CC2)ccn1 [Example 167, 4-Chloro-3-[2-(6-chloro-pyridin-3-yl)-ethoxy]-N-(2′-methyl-3,4,5,6-tetrahydro-2H-[1,4′]bipyridinyl-4-ylmethyl)-benzamide]		277
COc1cc(C(=O)NCC2CCN(c3ccnc(C)c3)CC2)cc(OCCc2ccc(Cl)cc2Cl)c1Cl [Example 168]		24
COc1ccc(C(=O)NCC2CCN(c3ccnc(C)c3)CC2)cc1OCCc1ccc(Cl)cc1 [Example 171]		130
Cc1ccc(C(=O)NCC2CCN(c3ccnc(Cl)n3)CC2)cc1OCCc1ccc(Cl)cc1Cl [Example 172, N-[1-(2-Chloro-pyrimidin-4-yl)-piperidin-4-ylmethyl]-3-[2-(2,4-dichloro-phenyl)-ethoxy]-4-methyl-benzamide]		6450
O=C(c1ccc(Br)c(OCCc2ccc(Cl)cc2Cl)c1)N1CCN(Cc2ccncc2)CC1 [Example 176, {4-Bromo-3-[2-(2,4-dichloro-phenyl)-ethoxy]-phenyl}-(4-pyridin-4-ylmethyl-piperazin-1-yl)-methanone]		365
